Source: paper PMC10447463, “Data-mining unveils structure–property–activity correlation of viral infectivity enhancing self-assembling peptides” (Nature Communications, 2023)
“And” between values parts separate entries of the source, which are not always exact repeats. Equal values may be shown once.

Legend:
[1] = Aggregate analysis by widefield fluorescence microscopy; assay type: physicochemical; details: for Number of Aggregates / Aggregate Number: ThT-stained aggregates > 10 µm2 in 1330 µm × 1330 µm, 1 mg/mL 1 d, diluted to 0.1 mg/mL with 50 µM ThT, 3D object counter ImageJ, triplicate
Experimental: 4 µL of 1 mg/mL peptide fibrils solution is added to a 20 µL, 50 µM ThT–solution in PBS. The mixture is incubated for 15 min at RT to allow binding of ThT dye with β–sheet rich structures. For reference PBS (4 µL) was added instead of peptide fibril solution. The samples were placed in black UV Star® 384 microliter well–plates (Greiner bio–one). Fluorescence spectra were recorded on an Infinite® M1000 PRO microplate reader (Tecan) at λem = 488 nm upon excitation at λex = 440 nm with 10 nm bandwidths and multiple reads per well (3×3). Measurements were repeated in triplicates and averaged with standard deviation. A peptide fibril was considered as ThT-active if the fluorescence intensity was at least twice as strong compared to the control (PBS containing 10% DMSO). Zeta-Potential. For the determination of the surface charge of aggregated peptides zeta-potential measurements were conducted with a Zetasizer Nano ZS, Malvern Instruments. Unless stated otherwise the peptides were dissolved from DMSO (10 mg/mL) in PBS (pH 7.4) to concentration of 1 mg/mL and incubated for 1d at RT. Just before the measurement the 60 µL of the peptides were further diluted in 600 µL KCl (aq, 1 mM) in a 1 mL disposable folded capillary cells (DTS–1060, Zetasizer Nano series, Malvern). The zeta potential of the peptides was derived from the electrophoretic mobility based on the Smoluchowski formula. All measurements were averaged over two individually performed experiments and conducted in triplicates for each sample. Aggregate analysis. […] Furthermore, fluorescence microscopy was conducted by staining 1 µL preformed fibrils (1 mg/mL) with 9 µL ThT (50 µM). Brightfield microscopy was performed simultaneously to evaluate aggregation also for non ThT-active fibrils. The measurements were performed on a Leica DMi8 microscope with 10x air objective and equipped with a Leica MC170 HD camera with a filter setting λem = 527/30 nm upon excitation at λex = 480/40 nm) and processed with the Leica LASX software. To quantify size and number of microscopic aggregation of particles > 10 µm^2 at least 3 independently measured images were analyzed via the 3D object counter analysis tool of ImageJ, v 1.53f51. Sum–frequency generation. The SFG experiments were carried out with a femtosecond Ti: Sapphire amplified laser system (Spitfire Ace, Spectra–Physics, 800 nm, 40 fs, 1 kHz) with 5 W output power. We used 2 W to pump an optical parametric amplifier (TOPAS, light conversion) with a non–collinear difference frequency generation stage to generate broadband IR pulses. Another 1 W of the laser output passed through an etalon to generate narrowband visible pulses (10 cm^-1). The incident angles of the visible and IR beams were 36° and 41° with respect to the surface normal, respectively. The visible (13 µJ) and IR (5 µJ) pulses were overlapped spatially and temporally at the sample position. Subsequently, the generated SFG pulse was guided into a spectrograph (Acton SP 300i, Princeton Instruments), and detected with an EMCCD (Newton, Andor Technology). To avoid IR absorption of water vapor, we purged N2 for the measurement. All spectra were collected in the ssp (denoting s-, s- and p-polarized SFG, visible and IR, respectively) polarization combination. The spectra were normalized to the non–resonant signal taken from z–cut quartz after subtracting a background spectrum.
Table S8 Summary of aggregate analysis from widefield microscopy measurements (Figure S32). The Number of aggregated peptides, the median size area, average size area
and the cumulative total size area of all particles (> 10 µm2) in an area of 1330 µm × 1330 µm was determined via automated 3D object counting (ImageJ) in triplicate
measurements (Std. Dev.).
Aggregate Std. Dev. Std. Dev. Std. Dev. Std. Dev.
Sequence Abs. Inf. / Std. Dev. / Count Rate / Std. Dev. Number Aggregate Median Area Median Area Average Area Average Area Total Area/ Total Area/ […]

[2] = tested on: TZM-bl cells; assay type: cell-based; details: CellTiter-Glo, mean of n = 3 replicates
Experimental: The cell viability after addition of peptides to TZM–bl cells was studied via the CellTiter–Glo assay. To this end, 10,000 cells were seeded and on the next day serial diluted peptides were added. After 3 days the supernatant was removed and 100 µL CellTiter–Glo Reagent 1:1 diluted in PBS was added. After 10 min 50 µL was transferred to white microplate and luminescence was recorded by Orion microplate luminometer.
2. Cell Viability of Representatively Selected Peptides
Figure S 2 Cell Viability normalized to 100% metabolic activity as determined by CellTiterGlo Assay of 57 representatively selected peptides from the library. The selection represents infectivity enhancing and not […]
concentration. Error bars indicate standard deviation from triplicate measurements. Source data for Figure S2 […]
Figure S3 Cell Viability normalized to 100% metabolic activity determined by CellTiterGlo Assay of 20 peptides reported in literature. 33,34,43–48,35–42 Cell viability (> 80%) is maintained for all peptides at 1.3 µM concentration regardless of the preparation method, which is A PNF formation method by dilution of 10 mg/mL peptide stock in DMSO in PBS to 1 mg/mL or B preparation according to literature reported protocol (SI Section 8). Error bars indicate standard deviation from triplicate measurements. Source data for Figure S3 is provided.

[3] = previously reported peptides only; ref sieste 2021 or Schilling2019; cited from earlier work
Description: Supplement 41467_2023_40663_MOESM7_ESM.zip/FigS17.csv, table | column: Conversion Rate / % ( from sieste 2021 or Schilling2019)

Q: Which “Number of Aggregates / Aggregate Number” value [1] does the source give for CQFQFQF here?
A: Its value is 46.

Q: Which “Number of Aggregates / Aggregate Number” value [1] does the source give for CKIKQIINMWQ here?
A: The value was 195.

Q: Which “Number of Aggregates / Aggregate Number” value [1] does the source give for RGDSGGGGGGKIKIQIC here?
A: Its value is 72.

Q: With CKFKFQFW as the substance, how does the “Number of Aggregates / Aggregate Number” value [1] read?
A: The value was 517.

Q: Which “Number of Aggregates / Aggregate Number” value [1] does the source give for CKFKQFFNM here?
A: The value was 704 ± 90 and 704.

Q: For HHHHKIKIKIKIWWWW [TM4], which “Avg Area in 3 *(1330 µm *1330 µm)” value ([1]; Fig S8 panels A, C) is on record?
A: The value was 50.02.

Q: What about the “Log 10 Number of aggregates in 3 * (1330 µm *1330 µm)” value ([1]; Fig S8 panels A, C) of the same substance?
A: The value was 2.649.

Q: What about the “Median Area in 3 * (1330 µm *1330 µm)” value ([1]; Fig S8 panels A, C) of the same substance?
A: The value was 24.51.

Q: What about the “log Avg Area in 3 * ( (1330 µm *1330 µm))” value ([1]; Fig S8 panels A, C) of the same substance?
A: The value was 1.699.

Q: And the “log Median Area in 3 * ( (1330 µm *1330 µm))” value ([1]; Fig S8 panels A, C)?
A: Its value is 1.389.

Q: And the “log Total Area of all particles in 3 * (1330 µm *1330 µm)” value ([1]; Fig S8 panels A, C)?
A: The value was 4.348.

Q: What about the “Number of aggregates in 3 * (1330 µm *1330 µm)” value ([1]; Fig S8 panels A, C, 3 fields of 1330 µm x 1330 µm) of the same substance?
A: Its value is 445.7.

Q: What about the “Avg Area in 3 *(1330 µm *1330 µm)” value ([1]; Fig S8 panels B, D, average aggregate area, 3 fields of 1330 µm x 1330 µm) of the same substance?
A: Its value is 50.02.

Q: And the “Median Area in 3 * (1330 µm *1330 µm)” value ([1]; Fig S8 panels B, D, median aggregate area, 3 fields of 1330 µm x 1330 µm)?
A: The value was 24.51.

Q: And the “Total Area of all particles in 3 * (1330 µm *1330 µm)” value ([1]; Fig S8 panels B, D, total area of all particles, 3 fields of 1330 µm x 1330 µm)?
A: Its value is 22293.86733.

Q: And the “Number of aggregates in 3 * (1330 µm *1330 µm)” value ([1]; Fig S8 panels B, D, widefield fluorescence microscopy, 3 fields of 1330 µm x 1330 µm)?
A: The value was 445.7.

Q: What about the “viability 0.26 µM” value ([2]; peptide 0.26 µM) of the same substance?
A: The value was 89.63.

Q: And the “viability 1.3 µM” value ([2]; peptide 1.3 µM)?
A: The value was 83.12.

Q: What about the “viability 6.5 µM” value ([2]; peptide 6.5 µM) of the same substance?
A: Its value is 68.76.

Q: What about the “Conversion Rate / % ( from sieste 2021 or Schilling2019)” value [3] of the same substance?
A: Its value is 96%.

Q: For KIKIQIC, which “Number of Aggregates / Aggregate Number” value [1] is on record?
A: Its value is 82.

Q: For CKAKAQANMWQ, which “Number of Aggregates / Aggregate Number” value [1] is on record?
A: Its value is 6.

Q: Which “Number of Aggregates / Aggregate Number” value [1] does the source give for HHHHKIKIQINMYYYY here?
A: Its value is 234.

Q: For CSISIQI, which “Number of Aggregates / Aggregate Number” value [1] is on record?
A: Its value is 123.

Q: For HHHHKIKIKIKIYYYY, which “Number of Aggregates / Aggregate Number” value [1] is on record?
A: Its value is 147.

Q: Which “Number of Aggregates / Aggregate Number” value [1] does the source give for HHHHKIKIKIKIWWWW here?
A: Its value is 446.

Q: Which “Number of Aggregates / Aggregate Number” value [1] does the source give for CKIKIQI here?
A: Its value is 317 ± 36 and 317.

Q: For CKIKQII, which “Number of Aggregates / Aggregate Number” value [1] is on record?
A: Its value is 76 ± 12 and 76.
